Tests used:
Format in all cases: in vivo
Plutella xylostella [1] = assay: Action on Diamond Back Moth (Plutella xylostella), cabbage leaf dip, 3rd instar larvae
Procedure, shortened: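 Cabbage leaves dipped in compound solution (1:1 water:acetone, 0.01% v/v surfactant), air-dried, then infested with ten 3rd-instar larvae in petri dishes on moist filter paper. Mortality scored at 72 h after treatment; feeding damage rated on a 0–100% scale.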

Heliothis virescens = assay: Action on Tobacco Budworm (Heliothis virescens); conditions: 800 ppm, egg and larval mortality, 5 days
Procedure, shortened: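 Compounds in 25% DMSO/75% water were sprayed at several concentrations onto insect diet in microtiter wells holding 15-25 eggs, two replications. After 5 days at about 28±1 °C and 80±5% RH, egg and larval mortality was scored visually.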

Spodoptera eridania = assay: Action on Southern Armyworm (Spodoptera eridania), 2nd Instar Larvae
Procedure, shortened: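 Compounds in 50% acetone/water with 0.01% nonionic surfactant sprayed electrostatically onto Lima bean plants at 1st true leaf stage. After drying, 10–11 2nd-instar larvae bagged with each pot, kept about 25 °C, 20–40% RH. Mortality and reduced feeding scored at 4 days vs untreated plants.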

Dichromothrips corbetti = assay: Action on Orchid Thrips (Dichromothrips corbetti); conditions: 300 ppm, adults, 72 hours after treatment
Experimental: Example B2: Action on Orchid Thrips (Dichromothrips corbetti)
Dichromothrips corbetti adults used for bioassay were obtained from a colony maintained continuously under laboratory conditions. For testing purposes, the test compound is diluted in a 1:1 mixture of acetone: water (vol: vol), plus Kinetic® HV at a rate of 0.01% v/v.
Thrips potency of each compound was evaluated by using a floral-immersion technique. All petals of individual, intact orchid flowers were dipped into treatment solution and allowed to dryin Petri dishes. Treated petals were placed into individual re-sealable plastic along with about 20 adult thrips. All test arenas were held under continuous light and a temperature of about 28 °C for duration of the assay. After 3 days, the numbers of live thrips were counted on each petal. The percent mortality was recorded 72 hours after treatment.

Aedes aegypti = assay: whole plant or invertebrate; conditions: for mortality in comparison with untreated controls: 800 ppm, larvae, 2 days
Procedure, shortened: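 Freshly hatched larvae (5-15 per well) were held in tap water, and compounds formulated in 25% DMSO/water were sprayed onto diet at several concentrations in duplicate. Larval mortality was scored visually after 2 days at 28±1 °C, 80±5% RH.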

Anthonomus grandis = assay: Action on Boll Weevil (Anthonomus grandis); conditions: 800 ppm, egg and larval mortality, 5 days
Procedure, shortened: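 Compounds in 75:25 water:DMSO sprayed at several concentrations onto insect diet in microtiter wells holding 5-10 eggs, two replicates. Plates kept 5 days at about 25±1 °C and 75±5% RH; egg and larval mortality scored visually.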

Plutella xylostella [2] = assay: Action on Diamond Back Moth (Plutella xylostella), microtiter plates, insect diet, eggs; conditions: 800 ppm; egg and larval mortality; 5 days
Procedure, shortened: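 Diet in 96-well plates with 15–25 P. xylostella eggs, sprayed with compound formulated in 75% water/25% DMSO at several concentrations, two replicates; mixtures combined in equal volumes. Incubated 5 days at 28±1 °C, 80±5% RH, then egg and larval mortality scored visually.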

[3] = 300 ppm, 3rd instar larvae, 72 hours after treatment
[4] = 300 ppm, 2nd instar larvae, 4 days after treatment

Structure (SMILES) | mortality in comparison with untreated controls (Plutella xylostella [1]; [3]) | mortality in comparison with untreated controls (Heliothis virescens) | mortality in comparison with untreated controls (Spodoptera eridania; [4]) | mortality in comparison with untreated controls (Dichromothrips corbetti) | mortality in comparison with untreated controls (Aedes aegypti) | mortality in comparison with untreated controls (Anthonomus grandis) | mortality in comparison with untreated controls (Plutella xylostella [2]) | also measured
Cc1ccc(C(C)C)c(N2C(=O)CSC2=NC(=O)Nc2ccc(-n3cc(NC(=O)c4ccc(OC(F)(F)F)cc4)c(C)n3)cc2)c1 [Example C-9] | at least 75% | at least 75% | at least 75% | at least 75% | at least 50% | at least 75% | – | –
Cc1ccc(C(C)C)c(N2C(=O)CS/C2=N\C(=O)Nc2ccc(-n3cc(N(C)C(=O)c4ccc(OC(F)(F)F)cc4)c(C)n3)cc2)c1 [Example C-2, N-[1-[4-[[(Z)-[3-(2-isopropyl-5-methyl-phenyl)-4-oxo-thiazolidin-2-ylidene]carbamoyl]amino]phenyl]-3-methyl-pyrazol-4-yl]-N-methyl-4-(trifluoromethoxy)benzamide] | – | – | – | – | – | – | – | mortality at 10 ppm (Plutella xylostella [1]; Plutella xylostella, foliar, 72 h, Table R-1 comparative data, dose 10 ppm, test species PLUTMA, procedure analogous to B6): 100%; mortality at 300 ppm (Plutella xylostella [1]; Plutella xylostella, foliar, 300 ppm, 3rd instar larvae, 72 hours after treatment, read-out: mortality in comparison with untreated controls): ≥ 75%; mortality at 800 ppm (Heliothis virescens; Heliothis virescens, 120 h, read-out: mortality in comparison with untreated controls): ≥ 75%; mortality at 300 ppm (Spodoptera eridania; Spodoptera eridania, 96 h, 300 ppm, 2nd instar larvae, 4 days after treatment, read-out: mortality in comparison with untreated controls): ≥ 75%; mortality at 10 ppm (Spodoptera eridania; Spodoptera eridania, 96 h, Table R-1 comparative data, dose 10 ppm, test species PRODER, procedure analogous to B7): 82.5%; mortality at 300 ppm (Dichromothrips corbetti; Dichromothrips corbetti, read-out: mortality in comparison with untreated controls): ≥ 75%; mortality at 800 ppm (Aedes aegypti; Aedes aegypti, 48 h, read-out: mortality in comparison with untreated controls): ≥ 50%; mortality at 800 ppm (Anthonomus grandis; Anthonomus grandis, 120 h, read-out: mortality in comparison with untreated controls): ≥ 75%
Cc1ccc(C(F)(F)F)c(N2C(=O)CSC2=NC(=O)Nc2ccc(-n3cc(N(C)C(=O)c4ccc(OC(F)(F)F)cc4)c(C)n3)cc2)c1 [Example C-11] | at least 75% | at least 75% | at least 75% | at least 75% | at least 50% | at least 75% | – | –
Cc1ccc(C(C)C)c(N2C(=O)CS/C2=N\C(=O)Nc2ccc(-n3cc(NC(=O)c4cc(F)c(F)c(F)c4)c(C)n3)cc2)c1 [Example C-23] | at least 75% | at least 75% | at least 75% | at least 75% | at least 50% | at least 75% | – | –
Cc1ccc(C(C)C)c(N2C(=O)CS/C2=N\C(=O)Nc2ccc(-n3nc(C)c(NC(=O)c4ccc(OC(F)(F)F)cc4)c3C)cc2Br)c1 [Example C-19] | at least 75% | at least 75% | at least 75% | at least 75% | at least 50% | at least 75% | – | –
Cc1ccc(C(C)C)c(N2C(=O)CSC2=NC(=O)Nc2ccc(-n3nc(C)c(NC(=O)c4ccc(Cl)c(C#N)c4)c3C)cc2)c1 [Example C-118] | at least 75% | – | – | – | – | at least 75% | at least 75% | –
Cc1ccc(C(C)C)c(N2C(=O)CS/C2=N\C(=O)Nc2ccc(-n3nc(C)c(NC(=O)c4ccc(OC(F)(F)F)cc4)c3C)nc2)c1 [Example C-22] | at least 75% | – | at least 75% | at least 75% | – | – | – | –
Cc1ccc(C(C)C)c(N2C(=O)CS/C2=N\C(=O)Nc2ccc(-n3nc(C)c(NC(=O)c4ccc(OC(F)(F)F)cc4)c3C)cc2OC(F)F)c1 [Example C-20] | at least 75% | at least 75% | at least 75% | at least 75% | at least 50% | at least 75% | – | –
Cc1ccc(C(C)C)c(N2C(=O)CS/C2=N\C(=O)Nc2ccc(-n3nc(C)c(NC(=O)c4ccc(Cl)cc4F)c3C)cc2Cl)c1 [Example C-106] | – | at least 75% | at least 75% | – | at least 50% | at least 75% | at least 75% | –
Cc1ccc(C(C)C)c(N2C(=O)CSC2=NC(=O)Nc2ccc(-n3cc(NC(=O)c4ccc([N+](=O)[O-])cc4)c(C)n3)cc2)c1 [Example C-54] | – | at least 75% | at least 75% | – | at least 50% | at least 75% | at least 75% | –
Cc1ccc(C(C)C)c(N2C(=O)CS/C2=N\C(=O)Nc2cc(C)c(-n3nc(C)c(NC(=O)c4ccc(OC(F)(F)F)cc4)c3C)cc2Cl)c1 [Example C-99] | – | at least 75% | at least 75% | – | at least 50% | at least 75% | at least 75% | –
COc1ccc(C(C)C)c(N2C(=O)CSC2=NC(=O)Nc2ccc(-n3nc(C)c(NC(=O)c4ccc(OC(F)(F)F)cc4)c3C)cc2Cl)c1 [Example C-44] | at least 75% | at least 75% | – | at least 75% | at least 50% | at least 75% | – | –
Cc1ccc(C(C)C)c(N2C(=O)CS/C2=N\C(=O)Nc2ccc(-n3cc(NC(=O)c4ccc(Cl)cc4)c(C)n3)cc2)c1 [Example C-29] | – | at least 75% | at least 75% | – | at least 50% | at least 75% | at least 75% | –
Cc1ccc(C(C)C)c(N2C(=O)CSC2=NC(=O)Nc2ccc(-n3nc(C)c(NC(=O)c4ccc(C#N)cc4F)c3C)cc2)c1 [Example C-107] | – | at least 75% | at least 75% | – | at least 50% | at least 75% | at least 75% | –
Cc1ccc(C(C)C)c(N2C(=O)CSC2=NC(=O)Nc2ccc(-n3nc(C)c(NC(=O)c4ccc(F)cc4)c3C)cc2)c1 [Example C-112] | – | at least 75% | at least 75% | – | at least 50% | at least 75% | at least 75% | –
Cc1ccc(C(C)C)c(N2C(=O)CSC2=NC(=O)Nc2ccc(-n3nc(C)c(NC(=O)c4ccc(Br)cc4)c3C)cc2)c1 [Example C-116] | – | at least 75% | at least 75% | – | at least 50% | at least 75% | at least 75% | –
Cc1ccc(C(C)C)c(N2C(=O)CSC2=NC(=O)Nc2ccc(-n3nc(C)c(NC(=O)c4ccc(F)c(F)c4)c3C)cc2)c1 [Example C-114] | – | at least 75% | at least 75% | – | at least 50% | at least 75% | at least 75% | –
